According to US20110065675A1, “AZO DYE RELATED SMALL MOLECULE MODULATORS OF PROTEIN-PROTEIN INTERACTIONS” (University of Miami, priority 2008, published 2011):
Where two headings read alike, the source gives them in different places.

Legend:
[1] = molecular target: human TNF-R1/TNFα (Homo sapiens, UniProt P01375+P19438); assay: Specificity test: human TNF-R1/TNFα binding inhibition assay; conditions: for IC50: cell-free binding, read-out: Human TNFR1/TNFα IC50; for Human TNFR1/TNFα log IC50: log of IC50, cell-free binding
human TNF-R1/TNFα, sequence (P01375 77-233 limits assumed): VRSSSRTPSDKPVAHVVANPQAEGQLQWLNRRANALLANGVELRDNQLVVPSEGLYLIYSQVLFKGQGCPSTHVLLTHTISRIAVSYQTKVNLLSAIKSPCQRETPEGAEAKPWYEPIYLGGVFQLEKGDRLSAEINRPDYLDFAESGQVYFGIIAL
human TNF-R1/TNFα, sequence (P19438 30-211 limits assumed): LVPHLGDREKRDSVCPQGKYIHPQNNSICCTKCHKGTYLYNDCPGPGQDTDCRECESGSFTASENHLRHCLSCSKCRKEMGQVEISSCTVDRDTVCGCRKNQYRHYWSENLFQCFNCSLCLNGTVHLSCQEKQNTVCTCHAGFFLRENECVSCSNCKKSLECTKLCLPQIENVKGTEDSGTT
Excerpt: A main concern for the therapeutic applicability of these compounds and of small molecule PPI inhibitors in general is related to their ability to achieve some acceptable degree of selectivity/specificity for the PPI of interest. To identify compounds that show acceptable specificity for the CD40/CD154 system, their ability to inhibit the TNF-R1/TNF-α PPI was investigated since this is particularly relevant as CD154 is part of the TNF superfamily. The experimental setup used was very similar to the one described in Example 1, but using plate-coated TNF-R1 and TNF-α as ligand (with a corresponding anti-TNF-α mAb as positive control). The concentration of TNF-R1 and TNF-α used were 0.6 μg/mL and 0.02 μg/mL, respectively.

[2] = molecular target: T1, human CD40/CD154 (Homo sapiens, UniProt P29965); assay: Human CD40/CD154 binding inhibition assay (cell-free, plate-based)
T1 construct: CD154 (soluble human, FLAG-tagged, recombinant from Alexis Biochemicals; MW=18 kDa); purchased Alexis Biochemicals
T1 sequence (P29965 113-261 limits assumed): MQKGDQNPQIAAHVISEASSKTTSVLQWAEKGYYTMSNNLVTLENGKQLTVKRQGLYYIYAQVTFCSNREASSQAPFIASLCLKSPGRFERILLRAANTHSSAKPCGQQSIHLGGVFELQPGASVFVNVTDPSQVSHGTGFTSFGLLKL
Experimental: A 96-well plate-based cell-free in vitro binding inhibition assay, which is a modification of an assay described in U.S. Pat. No. 7,173,046, incorporated by reference in its entirety, has been developed and used for activity screening. Briefly, CD40 is coated at a preselected concentration, and binding of (FLAG-tagged) CD154 is measured by reacting with secondary antibody and using TMB liquid substrate system as a substrate for horseradish peroxidase for reading at 450 nm. The detailed procedure is as follows: Microtiter plates (Nunc F MaxiSorp) were coated with […] of CD40: Fc (human:Fc human, recombinant from Alexis Biochemicals; MW=54 kDa) diluted in PBS pH 7.2 at a preselected concentration of 0.3125 μg/mL. Plates were covered with plate sealer and stored overnight at 4° C. The liquid was removed from the plates and blotted dry. Plates were blocked by washing once with approx. 300 μL/well of Blocking Solution (PBS pH 7.2, 0.05% Tween-20, 1% BSA) and incubated with the same solution for 1 hour at room temperature (RT) or at 4° C. overnight. Coated plates were washed three times with Washing Solution (PBS pH 7.4, 0.05% Tween-20) and blotted dry. A preselected dilution of CD154 (soluble human, FLAG-tagged, recombinant from Alexis Biochemicals; MW=18 kDa) of 0.0087500875 μg/mL range was prepared in 100 mM HEPES, 0.005% BSA pH 7.2. Binding was carried out by adding 100 μL of this CD154 dilution/well and incubating at RT in the presence of test compounds (or blank as negative control). After incubation, the plates were washed with Washing Solution and blotted dry. Bound CD154 was detected with 200 μL/well of secondary antibody mAb ANTI-FLAG M2—Peroxidase Conjugate (anti-FLAG M2-peroxidase HRP conjugate; Sigma-Aldrich) diluted 1:40,000 in Washing Solution. After incubation, the plates were washed and blotted dry. 200 μL/well of the HR-Peroxidase substrate TMB (3,3′,5,5′-tetramethylbenzidine; Sigma-Aldrich) were added, and the plates were incubated for approximately 30 minutes in the dark. The reaction was stopped with 0.5 M H2SO4 and read at 450 nm. All conditions were tested in at least three independent experiments in duplicate or triplicate per plates. Data were normalized and fitted with standard log inhibitor vs. response models using GraphPad Prism 5 to establish median inhibitory ICso values.
A representative result using the monoclonal anti-human CD154 antibody (R&D Systems, monoclonal anti-human CD40 ligand/TNFSF5 antibody, MAB617; MW≈150 kDa used) as positive control is shown in FIG. 1.
Binding inhibition assays with this system provided consistent and well-reproducible results, as FIG. 1 (bottom), focusing on the concentration range of their activities, illustrates. […] The effect of DMSO, which was used as the diluting solvent for the non-water-soluble compounds and is a standard solvent in HTS assays, on the integrity of the assay has been examined. DMSO concentrations above 10% interfere with the binding assay, but concentrations below 3% have no effect. […] Because 5 or 10 mM stock solutions were used, all IC50 values below 250 μM can be considered as unaffected by DMSO.

[3] = molecular target: T2, mouse CD40/CD154 (mCD40:mCD154) (Mus musculus, UniProt P27548); assay: Murine CD40/CD154 binding inhibition assay; conditions: for IC50: cell-free binding, read-out: Mouse CD40/CD154 IC50; for Mouse CD40/CD154 log IC50: log of IC50, cell-free binding
T2 construct: (FLAG-tagged) mCD154 (recombinant mouse CD40L, soluble, Alexis Biochemicals); purchased R&D Systems (mCD40/Fc); Alexis Biochemicals (mCD154)
T2 sequence (P27548 112-260 limits assumed): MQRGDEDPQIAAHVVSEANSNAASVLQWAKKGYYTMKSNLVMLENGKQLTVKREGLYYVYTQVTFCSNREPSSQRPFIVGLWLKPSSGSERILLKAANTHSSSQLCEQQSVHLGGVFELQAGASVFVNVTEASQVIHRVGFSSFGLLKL
Experimental: Compounds of interest were also tested in a murine (mouse) model similar to the human one with murine CD40 and CD154 replacing the corresponding human proteins. This serves as additional confirmation of the in vitro inhibitory potential of these compounds, and it was considered important because mouse models are likely to be used as the first in vivo tests. […] The experimental setup used was similar to the one described above, but using mCD40 (recombinant mouse CD40/TNFRSF5/Fc Chimera, soluble, R&D Systems) and (FLAG-tagged) mCD154 (recombinant mouse CD40L, soluble, Alexis Biochemicals). This time, however, a higher concentration of CD154 ligand had to be employed to obtain adequate signals, and after a number of calibration tests, mCD40 coating at 0.3125 μg/mL with mCD154 (mCD40L) at 1.1212 μg/mL range was selected to be used to screen the inhibiting activity of various compounds.
The experiments confirmed that the murine anti-CD154 monoclonal antibody (Taconic, MR1) was active in this system at the expected concentration (˜1 nM range), the human antibody was not, and vice versa, the human mAb was active in the human system, but not in the mouse system. The mouse system provided a similar range of activity with some (up to approximately five-fold) changes in activities compared to that seen in the human system (FIG. 2) (Table 1).

[4] = cell-free binding, read-out: Human CD40/CD154 IC50
[5] = cell-free binding, read-out: Human CD40/CD154 IC50 (ug/mL) (converted)
[6] = log of IC50, cell-free binding, read-out: Human CD40/CD154 log IC50 (converted)

IC50 [1] | Human TNFR1/TNFα log IC50 [1] | Human CD40/CD154 IC50 ([2]; cell-free binding) | IC50 [2, 4] | Human CD40/CD154 log IC50 ([2]; log of IC50, cell-free binding) | IC50 [3] | Mouse CD40/CD154 log IC50 [3] | IC50 [2, 5] | IC50 [2, 6] | Molecule
467 µM | −3.33 | 18.6 µg/mL | 30.2 µM | −4.52 | – | – | – | – | Nc1c(N=Nc2cccc([N+](=O)[O-])c2)c(S(=O)(=O)[O-])cc2cc(S(=O)(=O)[O-])c(N=Nc3ccccc3)c(O)c12.[Na+].[Na+] [Acid blue 29, acid blue 29]
– | – | 0.8 µg/mL | 1.1 µM | −5.95 | – | – | – | – | O=S(=O)([O-])c1cccc(N=Nc2ccc(N=Nc3ccc(Nc4ccccc4)c4c(S(=O)(=O)[O-])cccc34)c3ccccc23)c1.[Na+].[Na+] [Acid blue 113, acid blue 113]
14.2 µM | −4.85 | 2.4 µg/mL | 2.8 µM | −5.55 | – | – | – | – | Cc1ccc(S(=O)(=O)Oc2ccc(N=Nc3ccc(-c4ccc(N=Nc5c(O)ccc6cc(S(=O)(=O)[O-])cc(S(=O)(=O)[O-])c56)c(C)c4)cc3C)cc2)cc1.[Na+].[Na+] [Acid red 114, C.I. acid red 114]
– | – | 92.8 µg/mL | 141 µM | −3.85 | 282 µM | −3.55 | – | – | O=S(=O)([O-])c1cc(S(=O)(=O)[O-])c2c(N=Nc3ccc(N=Nc4ccccc4)cc3)c(O)ccc2c1.[Na+].[Na+] [Brilliant crocein (crocein scarlet MOO), Brilliant crocein, reference compound]
34.9 µM | – | – | 5.7 µM | – | – | – | 6.13 µM | – | Nc1c(/N=N/c2ccc(-c3ccc(/N=N/c4cc(S(=O)(=O)O)c5ccccc5c4N)cc3)cc2)cc(S(=O)(=O)O)c2ccccc12 [Congo red]
168 µM | −3.77 | 3.6 µg/mL | 5.5 µM | −5.26 | 13.7 µM | −4.86 | – | – | Cc1cc(S(=O)(=O)[O-])ccc1N=Nc1ccc(N=Nc2c(O)ccc3cccc(S(=O)(=O)[O-])c23)c(C)c1.[Na+].[Na+] [Crocein scarlet 7B, crocein scarlet 7B]
– | – | 1.4 µg/mL | 1.4 µM | −5.86 | – | – | – | – | COc1cc(-c2ccc(N=Nc3c(S(=O)(=O)[O-])cc4cc(S(=O)(=O)[O-])cc(N)c4c3O)c(OC)c2)ccc1N=Nc1c(S(=O)(=O)[O-])cc2cc(S(=O)(=O)[O-])cc(N)c2c1O.[Na+].[Na+].[Na+].[Na+] [Direct blue 15, direct blue 15]
98.5 µM | −4.01 | 2.2 µg/mL | 2.1 µM | −5.68 | – | – | – | – | Nc1ccc2c(O)c(N=Nc3ccc(N=Nc4ccc(N=Nc5cc(S(=O)(=O)[O-])c6cccc(S(=O)(=O)[O-])c6c5)c5ccccc45)c4ccc(S(=O)(=O)[O-])cc34)c(S(=O)(=O)[O-])cc2c1.[Na+].[Na+].[Na+].[Na+] [Direct blue 71, direct blue 71]
– | – | 8.8 µg/mL | 13 µM | −4.88 | – | – | – | – | CCOc1ccc(N=Nc2ccc(-c3ccc(N=Nc4c(O)ccc5cc(S(=O)(=O)[O-])cc(S(=O)(=O)[O-])c45)cc3)cc2)cc1.[Na+].[Na+] [Direct red 37, direct red 37]
42.4 µM | −4.37 | 1.3 µg/mL | 1.9 µM | −5.72 | – | – | – | – | COc1ccccc1NC(=O)C(N=Nc1ccc(-c2nc3ccc(C)c(S(=O)(=O)[O-])c3s2)cc1S(=O)(=O)[O-])C(C)=O.[Na+].[Na+] (centres unmarked) [Direct yellow 27, direct yellow 27]
– | – | – | – | – | – | – | 1.6 µM | 1.45 µM | Cc1cc(-c2ccc(/N=N/c3ccc4c(S(=O)(=O)O)cc(S(=O)(=O)O)c(N)c4c3O)c(C)c2)ccc1/N=N/c1ccc2c(S(=O)(=O)O)cc(S(=O)(=O)O)c(N)c2c1O [Evans blue]
86 µM | −4.07 | 0.3 µg/mL | 0.7 µM | −6.18 | – | – | – | – | Nc1cc(N)c(N=Nc2cccc3c(S(=O)(=O)O)cccc23)cc1N=Nc1cc([N+](=O)[O-])ccc1O.[Na] [Mordant brown 1, mordant brown 1]
– | – | – | – | – | – | – | 4.24 µM | 3.8 µM | Cc1cc(-c2ccc(/N=N/c3c(S(=O)(=O)O)cc4cc(S(=O)(=O)O)cc(N)c4c3O)c(C)c2)ccc1/N=N/c1c(S(=O)(=O)O)cc2cc(S(=O)(=O)O)cc(N)c2c1O [Trypan blue, trypan blue]
– | – | 7.0 µg/mL | 12.8 µM | −4.89 | – | – | – | – | acid red 188
– | – | 1.4 µg/mL | 1.6 µM | −5.80 | – | – | – | – | direct blue 120
– | – | 16.2 µg/mL | 24.4 µM | −4.61 | – | – | – | – | direct red 53

Molecule | IC50 [1] | Human TNFR1/TNFα log IC50 [1] | Human CD40/CD154 IC50 ([2]; cell-free binding) | IC50 [2, 4] | Human CD40/CD154 log IC50 ([2]; log of IC50, cell-free binding) | IC50 [3] | Mouse CD40/CD154 log IC50 [3] | IC50 [2, 5] | IC50 [2, 6]
Nc1ccc(N=Nc2ccc(-c3ccc(N=Nc4c(S(=O)(=O)[O-])cc5cc(S(=O)(=O)[O-])c(N=Nc6ccccc6)c(O)c5c4N)cc3)cc2)c(N)c1.[Na+].[Na+] [Chlorazol black (direct black 38), direct black 38] | – | – | 0.9 µg/mL | 1.1 µM | −5.95 | – | – | – | –
